The results in this text go back to ChEMBL document CHEMBL1667742, “Angiotensin II receptor type 1 (AT1) selective nonpeptidic antagonists--a perspective” (Bioorg Med Chem, 2010).

Data set [1] addresses T1, Type-2 angiotensin II receptor (Homo sapiens) (UniProt P50052).
T1 sequence (whole entry): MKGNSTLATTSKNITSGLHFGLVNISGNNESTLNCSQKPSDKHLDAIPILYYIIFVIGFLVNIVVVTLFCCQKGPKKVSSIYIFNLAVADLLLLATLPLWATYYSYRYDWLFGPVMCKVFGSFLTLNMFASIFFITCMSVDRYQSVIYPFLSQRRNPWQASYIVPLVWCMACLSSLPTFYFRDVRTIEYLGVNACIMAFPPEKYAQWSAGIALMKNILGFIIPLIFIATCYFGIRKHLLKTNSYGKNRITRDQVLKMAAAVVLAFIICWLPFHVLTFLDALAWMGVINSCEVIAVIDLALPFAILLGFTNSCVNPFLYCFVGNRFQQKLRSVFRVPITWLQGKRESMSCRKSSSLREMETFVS
As to the kind of experiment: (§1) Binding affinity to angiotensin AT2 receptor. The following applies: concentration not given here.

For data set [2], the target named is T2, Type-2 angiotensin II receptor (Homo sapiens, UniProt P50052).
T2 sequence (P50052 whole entry): T1 sequence (whole entry)
The data set is described as §1.

The subject of data set [3] is Rattus norvegicus. As to the kind of experiment: Inhibition of angiotensin 2-induced response in iv dosed normotensive rat. It is filed as functional.
Data set [4] in a line: Oral bioavailability in rat. In kind it is ADME, organism-based. Particulars: in vivo.
Data set [5] in a line: Binding affinity to angiotensin AT1 receptor in rat liver membranes. In kind it is cell membranes, Membrane.
The nature of data set [6]: Oral bioavailability in dog. In kind it is ADME, organism-based, Canis lupus familiaris. Particulars: in vivo.
Data set [7] can be described thus: Oral bioavailability in cynomolgus monkey. It is filed as ADME, organism-based, Macaca fascicularis. Particulars: in vivo.
Data set [8] has as its target T3, Type-1 angiotensin II receptor (Cavia porcellus, UniProt Q9WV26).
T3 sequence (Q9WV26 whole entry): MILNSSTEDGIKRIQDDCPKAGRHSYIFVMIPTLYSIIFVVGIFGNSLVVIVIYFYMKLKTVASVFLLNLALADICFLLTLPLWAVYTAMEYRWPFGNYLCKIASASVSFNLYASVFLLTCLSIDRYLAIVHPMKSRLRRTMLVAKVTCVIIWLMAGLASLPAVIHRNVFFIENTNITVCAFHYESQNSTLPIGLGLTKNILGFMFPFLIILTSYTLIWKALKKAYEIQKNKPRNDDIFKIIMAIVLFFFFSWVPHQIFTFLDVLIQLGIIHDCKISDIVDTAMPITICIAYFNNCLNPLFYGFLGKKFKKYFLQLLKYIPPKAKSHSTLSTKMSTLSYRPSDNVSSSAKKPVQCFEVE
As to the kind of experiment: Binding affinity to angiotensin AT1 receptor in guinea pig adrenal cortex membranes. It is filed as cell membranes, Membrane.

The subject of data set [9] is Rattus norvegicus. Put plainly: Antihypertensive activity in iv dosed conscious rat. In kind it is functional.
In data set [10] the target is T4, Type-1 angiotensin II receptor (Homo sapiens, UniProt P30556).
T4 sequence (P30556 whole entry): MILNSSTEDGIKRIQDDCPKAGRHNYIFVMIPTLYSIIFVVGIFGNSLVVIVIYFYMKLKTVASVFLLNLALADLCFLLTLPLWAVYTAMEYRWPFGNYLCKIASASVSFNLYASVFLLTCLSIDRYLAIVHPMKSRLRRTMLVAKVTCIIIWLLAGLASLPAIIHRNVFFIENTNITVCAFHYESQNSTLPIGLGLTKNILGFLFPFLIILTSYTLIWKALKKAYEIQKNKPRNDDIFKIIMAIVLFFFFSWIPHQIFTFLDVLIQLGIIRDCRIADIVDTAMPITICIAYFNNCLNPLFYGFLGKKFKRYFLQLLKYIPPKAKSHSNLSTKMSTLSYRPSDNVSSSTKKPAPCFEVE
As to the kind of experiment: Displacement of [3H]-angiotensin 2 from angiotensin AT1 receptor in human PLC-PRF5 cells. It is filed as cell-based.

For data set [11], the target named is T4, Type-1 angiotensin II receptor. As to the kind of experiment: Antagonist activity at angiotensin AT1 receptor in human PLC-PRF5 cells. In kind it is functional, cell-based.
In data set [12] the test system is Rattus norvegicus. Put plainly: Antihypertensive activity in conscious normotensive rat at 0.1 mg/kg after 6 hrs. In kind it is functional.
In the next data set the test system is Homo sapiens. As to the kind of experiment: Metabolic stability in iv and po dosed human assessed as conversion of EXP3174. In kind it is ADME, organism-based. Particulars: in vivo.
For data set [13], the target named is T5, Type-1 angiotensin II receptor (Homo sapiens) (UniProt P30556).
T5 sequence (whole entry): T4 sequence (P30556 whole entry)
As to the kind of experiment: Ratio of compound IC50 to losartan IC50 for angiotensin AT1 receptor.

Data set [14] deals with T6, Type-1 angiotensin II receptor (Oryctolagus cuniculus, UniProt P34976).
T6 sequence (P34976 whole entry): T4 sequence (P30556 whole entry) with I2M, V49A, I254V, I270V, R272H, R311K, T349S, A353V
Put plainly: Binding affinity to angiotensin AT1 receptor in rabbit aortic rings.

Data set [15] can be described thus: Displacement of radiolabeled angiotensin2 from angiotensin AT1 receptor in rat adrenal cortex membranes. It is filed as cell membranes, Membrane.
The test system of data set [16] is Rattus norvegicus. Put plainly: Antihypertensive activity in iv dosed renal artery ligated rat model assessed as reduction of means arterial blood pressure by 30 mm Hg. It is filed as functional.
Data set [17] deals with T5, Type-1 angiotensin II receptor (Homo sapiens). As to the kind of experiment: Antagonist activity at angiotensin AT1 receptor. It is filed as functional.
Data set [18] addresses T4, Type-1 angiotensin II receptor. Put plainly: Binding affinity to angiotensin AT1 receptor.
Data set [19] deals with T5, Type-1 angiotensin II receptor (Homo sapiens). As to the kind of experiment: Ratio of compound Ki to losartan Ki for angiotensin AT1 receptor.

Changes are numbered by the printed parent chain.

`CCc1nc2c(C)cc(C)nc2n1Cc1ccc(-c2ccsc2-c2nn[nH]n2)cc1`: the inhibition (in general, the drop in the measured response relative to a control, in per cent) in data set [1] stood at 90%. The concentration for half-maximal inhibition (IC50) (commonly the concentration needed to halve the response being measured) in data set [2] came out at 2.3 nM.

In the case of `CCCc1cc(O)c(C)c(=O)n1Cc1ccc(-c2ccccc2-c2nn[nH]n2)cc1`, in the data set on Rattus norvegicus [3] (Rattus norvegicus, iv, read-out: ID50 (the source's name)), the ED50 amounted to 0.02 mg/kg.

For the molecule `CCCN(Cc1ccc(-c2ccccc2-c2nn[nH]n2)cc1)c1ncccc1C(=O)O`, the bioavailability in data set [4], in [6] and in [7] was more than 50% throughout. Besides, in data set [5], the inhibitory constant (Ki) (as a rule, a dissociation constant, usually derived from enzyme kinetics or from competition with a known ligand) is 0.76 nM.

Consider `Cc1cc(Sc2ccc(-c3ccccc3-c3nn[nH]n3)cc2)c2ccccc2n1`, for which, in data set [8], the IC50 stood at 370 nM.

Turning to `CCc1cc(Oc2ccc(-c3ccccc3-c3nnn[nH]3)cc2)c2ncccc2n1`, the ED50 with Rattus norvegicus [9] is 0.86 mg/kg. Also, the IC50 in [8] turned out to be 24 nM.

Turning to `CCCCc1ncc(/C=C(\Cc2cccs2)C(=O)O)n1Cc1ccc(C(=O)O)cc1` [EPROSARTAN], the ID60 in the data set on Rattus norvegicus [3] was found to be 0.08 mg/kg.

`CCCCN1CC2(CN1Cc1ccc(-c3ccccc3S(=O)(=O)NC(=O)c3ccccc3)cc1)C(=O)CCC2=O` displayed a Ki in data set [10] of 10 nM. The IC50 in data set [11] came to 12 nM.

In turn, `CCCCN1CC2(CN1Cc1ccc(-c3ccccc3-c3nnn[nH]3)cc1)C(=O)CCC2=O` showed a Ki in [10] of 25 nM. This molecule came in with an IC50 in [11] of 22 nM.

Molecule `CCCCc1nc(-c2ccccc2Cl)c(C(=O)O)n1Cc1ccc(-c2ccccc2-c2nn[nH]n2)cc1` displayed an Activity in the data set on Rattus norvegicus [12] of 88%.

Take `CCCCc1nc(Cl)c(CO)n1Cc1ccc(-c2ccccc2-c2nn[nH]n2)cc1` [LOSARTAN]: in the data set on Homo sapiens, the Stability is given as 14%.

Regarding `CCCCC1=NC2(CCCC2)C(=O)N1Cc1ccc(-c2ccccc2-c2nnn[nH]2)cc1` [IRBESARTAN], in data set [5], the IC50 was found to be 1.3 nM. Moreover, in data set [13], the Ratio IC50 was 10.

In the case of `CCCCC1=N[C@](C)(C2CCCCC2)C(=O)N1Cc1ccc(-c2ccccc2-c2nnn[nH]2)cc1`, the IC50 in [14] amounted to 0.77 nM.

With `CCCCc1nc(Cl)c(C(=O)O)n1Cc1ccc(-c2ccccc2-c2nn[nH]n2)cc1` [CARBOXYLIC ACID METABOLITE], the IC50 in data set [15] was 0.37 nM. Further, in the data set with Rattus norvegicus [16], the ED30 is 0.038 mg/kg.

`CCOc1nc2cccc(C(=O)O)c2n1Cc1ccc(-c2ccccc2-c2nnn[nH]2)cc1` came in with a pD2 in data set [17] of 9.97. The IC50 in data set [18] was 110 nM. Also, in data set [19], the Ratio Ki turned out to be 10.
